Consider four compounds from ChEMBL document CHEMBL1150923, “A new cacospongionolide inhibitor of human secretory phospholipase A2 from the Tyrrhenian sponge Fasciospongia cavernosa and absolute configuration of cacospongionolides” (J Nat Prod, 1998).

≈ marks a conversion by molar mass, not a printed value.

The nature of data set [1]: Inhibition of pig pancreatic group1 sPLA2 at 10 uM by liquid scintillation counting. Details: species or system Sus scrofa; call rule not given here.
Data set [2] has as its target T1, Phospholipase A2, membrane associated (Homo sapiens, UniProt P14555).
T1 sequence (P14555 whole entry): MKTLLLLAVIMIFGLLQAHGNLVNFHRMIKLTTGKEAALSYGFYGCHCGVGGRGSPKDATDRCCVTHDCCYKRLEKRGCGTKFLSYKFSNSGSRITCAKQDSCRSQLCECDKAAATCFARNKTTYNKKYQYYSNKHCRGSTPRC
Nature of the data set: Inhibition of human synovial group2 sPLA2 by liquid scintillation counting.

Another data set deals with T2, Phospholipase A2 (Apis mellifera, UniProt P00630).
T2 sequence (P00630 whole entry): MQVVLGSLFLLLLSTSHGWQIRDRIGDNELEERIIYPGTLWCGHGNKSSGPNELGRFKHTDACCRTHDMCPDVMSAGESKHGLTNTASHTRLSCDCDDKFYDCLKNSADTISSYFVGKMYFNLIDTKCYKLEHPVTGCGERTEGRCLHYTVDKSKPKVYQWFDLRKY
Nature of the data set: Inhibition of bee venom group3 sPLA2 by liquid scintillation counting.

Data set [3] can be described thus: Cytotoxicity against human neutrophils by MTT assay. The class given is cell-based. The note with it: neutrophil.
Data set [4] addresses T3, Phospholipase A2, membrane associated (Rattus norvegicus, UniProt P14423).
T3 sequence (P14423 whole entry): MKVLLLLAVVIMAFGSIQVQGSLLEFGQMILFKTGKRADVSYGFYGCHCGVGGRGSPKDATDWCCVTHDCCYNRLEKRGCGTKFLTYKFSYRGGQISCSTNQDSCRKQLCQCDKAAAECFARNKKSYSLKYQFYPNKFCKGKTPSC
Nature of the data set: Inhibition of rat air pouch group2 sPLA2 by liquid scintillation counting.

Data set [5] is described as follows: Toxicity in Artemia salina. The class given is organism-based. Conditions: in vivo.
The nature of data set [6]: Toxicity in Gambusia affinis. The class given is organism-based. The note with it: in vivo.
A short description of data set [7]: Inhibition of pig pancreatic group1 sPLA2 by liquid scintillation counting. More on the design: species or system Sus scrofa.

As for `C[C@H]1CC[C@@]23C[C@]2(C)CCC[C@@H]3[C@@]1(C)CCC1=CC[C@H](C2=CC(=O)O[C@H]2O)OC1` [CACOSPONGIONOLIDE], the concentration for half-maximal inhibition (IC50) in data set [1] stood at 14.4 µM; in data set [2], 3 µM; against Phospholipase A2 it was 2.3 µM. In addition, the Activity entry in data set [3] is recorded as “Not Active”.
Take `CC1=C(CC/C(C)=C/CCC2=CC[C@H](C3=CC(=O)O[C@H]3O)O[C@H]2O)C(C)(C)CCC1` [MANOALIDE]: the IC50 in data set [1] worked out at 32.3 µM; in data set [2], 3.9 µM. In data set [3], the Activity entry is reported as “Not Active”.
For `CC1=CCC[C@@H]2[C@@](C)(CCC3=CC[C@H](C4=CC(=O)O[C@H]4O)OC3)[C@@H](C)CC[C@@]12C` [CACOSPONGIONOLIDE E], the IC50 in data set [1] was 5.3 µM; in data set [2] it was 1.4 µM; in data set [4], 7.8 µM; against Phospholipase A2 it was 2.8 µM. For the same compound, in data set [3], the Activity entry is given as “Not Active”. Moreover, the figures for the LC50 in data set [5] and in data set [6] were 1.29 µg/mL (≈ 3.22 µM) and 1.01 µg/mL (≈ 2.52 µM), respectively.
Regarding `C=C1CCC[C@H]2[C@](C)(CCC3=CCC(C4=CC(=O)OC4O)OC3)[C@H](C)CC[C@]12C` (stereo partly drawn) [CACOSPONGIONOLIDE B], the IC50 is 64.2 µM in data set [1], 4 µM in data set [7] and 4.3 µM in data set [2]. Further, in data set [3], the Activity result is “Not Active”.

The IC50 is the midpoint of a concentration-inhibition curve. A lower IC50 goes with higher potency. By LC50 is commonly meant the concentration that kills 50% of the test population.
